Common to all, as to format: in vivo
The test system of assay [1] is diamondback moth (Plutella xylostella (L.)). Put plainly: Test A: control of diamondback moth, foliar spray on mustard plant. The note with it: neonate larvae, assessed after 6 days. The protocol: (§1) Test compounds were formulated using a solution containing 10% acetone, 90% water and 300 ppm X-77® Spreader Lo-Foam Formula non-ionic surfactant containing alkylarylpolyoxyethylene, free fatty acids, glycols and isopropanol (Loveland Industries, Inc. Greeley, Colo., USA). The formulated compounds were applied in 1 mL of liquid through a SUJ2 atomizer nozzle with ⅛ JJ custom body (Spraying Systems Co. Wheaton, Ill., USA) positioned 1.27 cm (0.5 inches) above the top of each test unit. Test compounds were sprayed at the rates indicated, and each test was replicated three times.
For evaluating control of diamondback moth (Plutella xylostella (L.)) the test unit consisted of a small open container with a 12-14-day-old mustard plant inside. This was pre-infested with ˜50 neonate larvae that were dispensed into the test unit via corn cob grits using an inoculator. The larvae moved onto the test plant after being dispensed into the test unit.
Test compounds were formulated and sprayed at 250 and/or 50 ppm. After spraying of the formulated test compound, each test unit was allowed to dry for 1 hour and then a black, screened cap was placed on top. The test units were held for 6 days in a growth chamber at 25° C. and 70% relative humidity. Plant feeding damage was then visually assessed based on foliage consumed, and larvae were assessed for mortality.

The test system of assay [2] is fall armyworm (Spodoptera frugiperda (J. E. Smith)). Put plainly: Test B: control of fall armyworm, foliar spray on corn (maize) plant. The note with it: 1-day-old larvae, assessed after 6 days. The procedure:
as §1
For evaluating control of fall armyworm (Spodoptera frugiperda (J. E. Smith)) the test unit consisted of a small open container with a 4-5-day-old corn (maize) plant inside. This was pre-infested with 10-15 1-day-old larvae on a piece of insect diet.
Test compounds were formulated and sprayed at 250 and/or 50 ppm. After spraying of the formulated test compound, the test units were maintained in a growth chamber for 6 days at 25° C. and 70% relative humidity. Plant feeding damage was then visually assessed based on foliage consumed, and larvae were assessed for mortality.

Assay [3] relates to corn planthopper (Peregrinus maidis (Ashmead)). Put plainly: Test C: control of corn planthopper through contact and/or systemic means. The settings on record: 144 h, corn (maize) plant, nymphs, assessed after 6 days; for mortality at 250 ppm: sprayed at 250 ppm. The procedure: as §1
For evaluating control of corn planthopper (Peregrinus maidis (Ashmead)) through contact and/or systemic means, the test unit consisted of a small open container with a 3-4-day-old corn (maize) plant inside. White sand was added to the top of the soil prior to application of the test compound.
Test compounds were formulated and sprayed at 250 and/or 50 ppm. After spraying of the formulated test compound, the test units were allowed to dry for 1 h before they were post-infested with ˜15-20 nymphs (18-to-21-day-old). A black, screened cap was placed on the top of each test unit, and the test units were held for 6 days in a growth chamber at 22-24° C. and 50-70% relative humidity. Each test unit was then visually assessed for insect mortality.

In assay [4] the test system is potato leafhopper (Empoasca fabae (Harris)). The assay can be described thus: Test D: control of potato leafhopper through contact and/or systemic means. The settings on record: 144 h, Soleil bean plant, adults, assessed after 6 days; for mortality at 50 ppm: sprayed at 50 ppm; for mortality at 250 ppm: sprayed at 250 ppm. The procedure:
as §1
For evaluating control of potato leafhopper (Empoasca fabae (Harris)) through contact and/or systemic means, the test unit consisted of a small open container with a 5-6-day-old Soleil bean plant (primary leaves emerged) inside. White sand was added to the top of the soil, and one of the primary leaves was excised prior to application of the test compound.
Test compounds were formulated and sprayed at 250 and/or 50 ppm. After spraying of the formulated test compound, the test units were allowed to dry for 1 hour before they were post-infested with 5 potato leafhoppers (18-to-21-day-old adults). A black, screened cap was placed on the top of the test unit, and the test units were held for 6 days in a growth chamber at 20° C. and 70% relative humidity. Each test unit was then visually assessed for insect mortality.

Assay [5] deals with green peach aphid (Myzus persicae (Sulzer)). Put plainly: Test E: control of green peach aphid through contact and/or systemic means. The settings on record: 144 h, radish plant, assessed after 6 days; for mortality at 250 ppm: sprayed at 250 ppm. The procedure: as §1
For evaluating control of green peach aphid (Myzus persicae (Sulzer)) through contact and/or systemic means, the test unit consisted of a small open container with a 12-15-day-old radish plant inside. This was pre-infested by placing on a leaf of the test plant 30-40 aphids on a piece of leaf excised from a culture plant (cut-leaf method). The aphids moved onto the test plant as the leaf piece desiccated. After pre-infestation, the soil of the test unit was covered with a layer of sand.
Test compounds were formulated and sprayed at 250 and/or 50 ppm. After spraying of the formulated test compound, each test unit was allowed to dry for 1 hour and then a black, screened cap was placed on top. The test units were held for 6 days in a growth chamber at 19-21° C. and 50-70% relative humidity. Each test unit was then visually assessed for insect mortality.

In assay [6] the test system is Western Flower Thrips (Frankliniellla occidentalis (Pergande)). Put plainly: Test F: control of Western Flower Thrips through contact and/or systemic means. The note with it: sprayed at 250 ppm; Soleil bean plant, adult thrips; held for 6 days. The procedure: as §1
For evaluating control of the Western Flower Thrips (Frankliniellla occidentalis (Pergande)) through contact and/or systemic means, the test unit consisted of a small open container with a 5-7-day-old Soleil bean plant inside.
Test compounds were formulated and sprayed at 250 ppm. After spraying, the test units were allowed to dry for 1 hour, and then 22-27 adult thrips were added to each unit. A black, screened cap was placed on top, and the test units were held for 6 days at 25° C. and 45-55% relative humidity.

As for `FC(F)(F)c1ccnc(-n2cc(CN3CCC(C(F)(F)F)CC3)c(C3CCCC3)n2)c1` [Compound 25, 2-[3-cyclopentyl-4-[[4-(trifluoromethyl)-1-piperidinyl]methyl]-1H-pyrazol-1-yl]-4-(trifluoromethyl)pyridine], the “control efficacy (40% or less feeding damage and/or 100% mortality)” value in assay [1] (sprayed at 50 ppm), in assay [1] (sprayed at 250 ppm), in assay [2] (sprayed at 50 ppm) and in assay [2] (sprayed at 250 ppm) was “very good to excellent levels of control efficacy” in each case. Besides, the mortality at 250 ppm in assay [3], in assay [4] and in assay [5] was no less than 80% each time. This molecule had a mortality at 50 ppm in assay [4] of no less than 80%. In addition, the “control efficacy (30% or less plant damage and/or 100% mortality)” value in assay [6] is recorded as “very good to excellent levels of control efficacy”.

As to `N#CC1CCN(Cc2cn(-c3cc(C(F)(F)F)ccn3)nc2C2CCCC2)CC1` [Compound 26, 1-[[3-cyclopentyl-1-[4-(trifluoromethyl)-2-pyridinyl]-1H-pyrazol-4-yl]methyl]-4-piperidinecarbonitrile], the “control efficacy (40% or less feeding damage and/or 100% mortality)” value in assay [1] (sprayed at 50 ppm), in assay [1] (sprayed at 250 ppm), in assay [2] (sprayed at 50 ppm) and in assay [2] (sprayed at 250 ppm) was “very good to excellent levels of control efficacy” throughout. Further, the mortality at 250 ppm in assay [4] and in assay [5] was no less than 80% throughout. The mortality at 50 ppm in assay [5] (sprayed at 50 ppm) was no less than 80%. The “control efficacy (30% or less plant damage and/or 100% mortality)” value in assay [6] is “very good to excellent levels of control efficacy”.

`N#CC1CCN(Cc2cn(-c3ccc(Cl)c(Cl)c3)nc2C2CCC2)CC1` [Compound 27]: the “control efficacy (40% or less feeding damage and/or 100% mortality)” value in assay [1] (sprayed at 50 ppm), in assay [1] (sprayed at 250 ppm), in assay [2] (sprayed at 50 ppm) and in assay [2] (sprayed at 250 ppm) was “very good to excellent levels of control efficacy” in each case. The “control efficacy (30% or less plant damage and/or 100% mortality)” value in assay [6] is “very good to excellent levels of control efficacy”.

For the molecule `FC(F)(F)C1CCN(Cc2cn(-c3ccc(Cl)c(Cl)c3)nc2C2CCC2)CC1` [Compound 28], the “control efficacy (40% or less feeding damage and/or 100% mortality)” value in assay [1] (sprayed at 50 ppm), in assay [1] (sprayed at 250 ppm), in assay [2] (sprayed at 50 ppm) and in assay [2] (sprayed at 250 ppm) was “very good to excellent levels of control efficacy” in each case.

Regarding `N#CC1CCN(Cc2cn(-c3cc(C(F)(F)F)ccn3)nc2C2CC2)CC1` [Compound 35], the “control efficacy (40% or less feeding damage and/or 100% mortality)” value in assay [1] (sprayed at 50 ppm), in assay [1] (sprayed at 250 ppm), in assay [2] (sprayed at 50 ppm) and in assay [2] (sprayed at 250 ppm) was “very good to excellent levels of control efficacy” throughout.

As to `FC(F)(F)C1CCN(Cc2cn(-c3ccc(Cl)cn3)nc2C2CCCC2)CC1` [Compound 36], the “control efficacy (40% or less feeding damage and/or 100% mortality)” value in assay [1] (sprayed at 50 ppm), in assay [1] (sprayed at 250 ppm), in assay [2] (sprayed at 50 ppm) and in assay [2] (sprayed at 250 ppm) was “very good to excellent levels of control efficacy” in each case.

As to `FC(F)(F)C1CCN(Cc2cn(-c3cc(Cl)ccn3)nc2C2CCCC2)CC1` [Compound 37], the “control efficacy (40% or less feeding damage and/or 100% mortality)” value in assay [1] (sprayed at 50 ppm), in assay [1] (sprayed at 250 ppm), in assay [2] (sprayed at 50 ppm) and in assay [2] (sprayed at 250 ppm) was “very good to excellent levels of control efficacy” throughout.

For the molecule `N#CC1CCN(Cc2cn(-c3cc(Cl)ccn3)nc2C2CCCC2)CC1` [Compound 38, 1-[[1-(4-chloro-2-pyridinyl)-3-cyclopentyl-1H-pyrazol-4-yl]methyl]-4-piperidinecarbonitrile], the “control efficacy (40% or less feeding damage and/or 100% mortality)” value in assay [1] (sprayed at 50 ppm), in assay [1] (sprayed at 250 ppm), in assay [2] (sprayed at 50 ppm) and in assay [2] (sprayed at 250 ppm) was “very good to excellent levels of control efficacy” throughout. In assay [4], this molecule gave a mortality at 250 ppm of no less than 80%.

For the molecule `N#CC1CCN(Cc2cn(-c3cc(C(F)(F)F)ccn3)nc2C2CCC2)CC1` [Compound 46, 1-[[3-cyclobutyl-1-[4-(trifluoromethyl)-2-pyridinyl]-1H-pyrazol-4-yl]methyl]-4-piperidinecarbonitrile], the “control efficacy (40% or less feeding damage and/or 100% mortality)” value in assay [1] (sprayed at 50 ppm), in assay [1] (sprayed at 250 ppm), in assay [2] (sprayed at 50 ppm) and in assay [2] (sprayed at 250 ppm) was “very good to excellent levels of control efficacy” throughout. This molecule showed a mortality at 250 ppm in assay [4] of no less than 80%.

Turning to `CC(C)c1nn(-c2cc(C(F)(F)F)ccn2)cc1CN1CCC(C(F)(F)F)CC1` [Compound 54, 2-[3-(1-methylethyl)-4-[[4-(trifluoromethyl)-1-piperidinyl]methyl]-1H-pyrazol-1-yl]-4-(trifluoromethyl)pyridine], the mortality at 50 ppm in assay [3] (sprayed at 50 ppm) and in assay [4] was no less than 80% throughout. In addition, the mortality at 250 ppm in assay [3] and in assay [4] was no less than 80% each time.

The record behind these values is patent US10112906B2, “1-aryl-3-alkylpyrazole insecticides” (E. I. DU PONT DE NEMOURS AND COMPANY, priority 2013, dated 2018).
